Converted amounts (≈) assume the structure as drawn.
What was measured:
[1] = system: protein kinase; conditions: Berg et al. J. Biol. Chem. 267:13-16 (1992); cited from earlier work
[2] = Concentration of dissolved indolocarbazole obtained in aqueous solutions (HPLC); conditions: organic solvent or mixture
Description: In general, a solution of the concentrate can be prepared by combining a dispersant such as polyvinylpyrrolidone C-30 and a selected organic solvent such as propylene glycol into a beaker. The mixture is continuously stirred until completely dissolved. Solid PVP or other solution components may take 1-2 hours to dissolve completely at room temperature.
An amount of an indolocarbazole, for example, staurosporine, K-252a, or any one of indolocarbazole A, B, or C (Table 1) can each be individually weighed and added to a small aliquot of the aqueous solution, resulting in a 10 mg/ml solution after the indolocarbazole completely dissolves. Alternatively, a mixture of indolocarbazoles may be combined, weighed, and added to a small aliquot of the aqueous solution resulting in a 10 mg/ml solution after the indolocarbazole completely dissolves. An indolocarbazole solution can be stirred or shaken vigorously overnight. Any undissolved indolocarbazole is removed by standard centrifugation or filtration techniques. The concentration of solubilized indolocarbazole can be determined by reversed phase HPLC using a UV detector (290 nm).
The following HPLC conditions are used to determine the concentration of an indolocarbazole:
HPLC Column: Zorbax Rx C-18 4.6×250 mm, 5 micron particle size
Prior to injection of an indolocarbazole solution, there is allowed a 10 minute equilibration time.
Fifty g of PEG-400 were added to 50 ml of water and the mixture vigorously stirred until completely dissolved. One mg of either K-252a, staurosporine or the indolocarbazoles B or C (see Table 1) were added individually to a 100 μl aliquot of the PEG-400 solution and the resulting mixture was shaken overnight. The solution was clarified by centrifugation at 1000 rpm for 10 minutes. The supernatant was saved and any residue discarded. Ten μl of the supernatant was removed, diluted with DMSO (100:1) and the concentration of dissolved K-252a determined by HPLC.
Same as example 1 except that PEG-600 was used instead of PEG-400.
Same as example 1 except that PEG-1000 was used instead of PEG-400.
Same as example 1 except that 48 ml of water was used and 2 g of benzyl alcohol was added to the PEG-400 solution.
Same as example 2 except that 48 ml of water was used and 2 g of benzyl alcohol was added to the PEG-600 solution.
Same as example 3 except that 48 ml of water was used and 2 g of benzyl alcohol was added to the PEG-1000 solution.
2.5 g of benzyl alcohol was added to 47.5 g of PEG-400 and, in a separate container, 2.5 g of Pluronic F68 was added to 47.5 ml of water. Each solution was stirred until completely dissolved, then each solution was combined and stirred until homogeneous. One mg of K-252a was added to 100 μl of the solution and the resulting mixture was shaken overnight. The solution was clarified by centrifugation at 1000 rpm for 10 minutes. Ten (10) μl of supernatant was removed, diluted with DMSO (100:1), and the concentration of dissolved K-252a determined by HPLC.
Same as example 7 except that Pluronic™ L61 was used instead of Pluronic™ F68.
Same as example 7 except that Pluronic™ L64 was used instead of Pluronic™ F68.
Same as example 7 except that Tween™ 20 was used instead of Pluronic™ F68.
Same as example 7 except that Tween™ 80 was used instead of Pluronic™ F68.
Same as example 7 except that PVP was used instead of Pluronic™ F68 and PEG-300 was used instead of PEG-400.
Same as example 12 except that PEG-400 was used instead of PEG-300 and indolocarbazoles A, B or C were each solubilized individually in addition to K-252a.
Same as example 12 except that PEG-600 was used instead of PEG-300 and indolocarbazoles A, B or C were each solubilized individually in addition to K-252
Same as example 12 except that PEG-1000 was used instead of PEG-300.
Ten (10) g of Triton X-100 was added to 38 ml of water and the mixture was stirred thoroughly.

[3] = cited from earlier work

For `COC(=O)C1(O)CC2OC1(C)n1c3ccccc3c3c4c(c5c6ccccc6n2c5c31)C(=O)NC4` (centres unmarked) [Compound K-252a], the “modulation of neurotrophin responses by affecting protein kinase activity” value [1] is listed as “modulate neurotrophin responses”, the solubility thermodynamic ([2]; 50% peg 400, 50% h2o, Concentration Obtained, Example 1: 50% PEG 400, 50% H2O, target 10 mg/ml) is listed as 1.39 mg/mL (≈ 2.97 mM) and the solubility thermodynamic ([2]; 50% peg 600, 50% h2o, Concentration Obtained, Example 2: 50% PEG 600, 50% H2O, target 10 mg/ml) is listed as 1.92 mg/mL (≈ 4.11 mM). It also gave a solubility thermodynamic ([2]; 50% peg 1000, 50% h2o, Concentration Obtained, Example 3: 50% PEG 1000, 50% H2O, target 10 mg/ml) of 1.82 mg/mL (≈ 3.89 mM), a solubility thermodynamic ([2]; peg 300/ba/pvp/h2o, Concentration Obtained, Example 12: 47.5% PEG 300, 2.5% BA, 2.5% PVP, 47.5% H2O, target 10 mg/ml) of 9.6 mg/mL (≈ 20.5 mM) and a solubility thermodynamic ([2]; peg 400/ba/h2o, Concentration Obtained, Example 4: 50% PEG 400, 2% BA, 48% H2O, target 10 mg/ml) of 2.08 mg/mL (≈ 4.45 mM). For the same molecule, the solubility thermodynamic ([2]; peg 400/ba/pluronic f68/h2o, Concentration Obtained, Example 7: 47.5% PEG 400, 2.5% BA, 2.5% Pluronic F68, 47.5% H2O, target 10 mg/ml) was 5.5 mg/mL (≈ 11.8 mM), the solubility thermodynamic ([2]; peg 400/ba/pluronic l61/h2o, Concentration Obtained, Example 8: 47.5% PEG 400, 2.5% BA, 2.5% Pluronic L61, 47.5% H2O, target 10 mg/ml) was 3.5 mg/mL (≈ 7.49 mM) and the solubility thermodynamic ([2]; peg 400/ba/pluronic l64/h2o, Concentration Obtained, Example 9: 47.5% PEG 400, 2.5% BA, 2.5% Pluronic L64, 47.5% H2O, target 10 mg/ml) was 1.8 mg/mL (≈ 3.85 mM). The solubility thermodynamic ([2]; peg 400/ba/pvp/h2o, Concentration Obtained, Example 13: 47.5% PEG 400, 2.5% BA, 2.5% PVP, 47.5% H2O, target 10 mg/ml) was 10 mg/mL (≈ 21.4 mM), the solubility thermodynamic ([2]; peg 400/ba/tween 20/h2o, Concentration Obtained, Example 10: 47.5% PEG 400, 2.5% BA, 2.5% Tween 20, 47.5% H2O, target 10 mg/ml) was 6 mg/mL (≈ 12.8 mM) and the solubility thermodynamic ([2]; peg 400/ba/tween 80/h2o, Concentration Obtained, Example 11: 47.5% PEG 400, 2.5% BA, 2.5% Tween 80, 47.5% H2O, target 10 mg/ml) was 3.7 mg/mL (≈ 7.91 mM). It also gave a solubility thermodynamic ([2]; peg 600/ba/h2o, Concentration Obtained, Example 5: 50% PEG 600, 2% BA, 48% H2O, target 10 mg/ml) of 2.72 mg/mL (≈ 5.82 mM), a solubility thermodynamic ([2]; peg 600/ba/pvp/h2o, Concentration Obtained (saturation level), Example 20: 47.5% PEG 600, 2.5% BA, 2.5% PVP, 47.5% H2O, 10 mg added) of 10 mg/mL (≈ 21.4 mM) and a solubility thermodynamic ([2]; peg 600/ba/pvp/h2o, Concentration Obtained (saturation level), Example 22: 50% PEG 600, 2% BA, 10% PVP, 38% H2O, 10 mg added) of 21.2 mg/mL (≈ 45.3 mM). For the same molecule, the solubility thermodynamic ([2]; peg 600/ba/pvp/h2o, Concentration Obtained, Example 14: 47.5% PEG 600, 2.5% BA, 2.5% PVP, 47.5% H2O, target 10 mg/ml) was 10 mg/mL (≈ 21.4 mM), the solubility thermodynamic ([2]; peg 600/ba/pvp/h2o, Concentration Obtained, Example 18: 50% PEG 600, 2% BA, 10% PVP, 38% H2O, target 10 mg/ml) was 10 mg/mL (≈ 21.4 mM) and the solubility thermodynamic ([2]; peg 600/ba/triton x-100/h2o, Concentration Obtained, Example 16: 50% PEG 600, 2% BA, 10% Triton X-100, 38% H2O, target 10 mg/ml) was 10 mg/mL (≈ 21.4 mM). For the same molecule, the solubility thermodynamic ([2]; peg 600/ba/tween 80/h2o, Concentration Obtained, Example 17: 50% PEG 600, 2% BA, 10% Tween 80, 38% H2O, target 10 mg/ml) was 8.83 mg/mL (≈ 18.9 mM), the solubility thermodynamic ([2]; peg 1000/ba/h2o, Concentration Obtained, Example 6: 50% PEG 1000, 2% BA, 48% H2O, target 10 mg/ml) was 1.83 mg/mL (≈ 3.91 mM) and the solubility thermodynamic ([2]; peg 1000/ba/pvp/h2o, Concentration Obtained (saturation level), Example 21: 47.5% PEG 1000, 2.5% BA, 2.5% PVP, 47.5% H2O, 10 mg added) was 14.1 mg/mL (≈ 30.2 mM). The solubility thermodynamic ([2]; peg 1000/ba/pvp/h2o, Concentration Obtained, Example 15: 47.5% PEG 1000, 2.5% BA, 2.5% PVP, 47.5% H2O, target 10 mg/ml) was 10 mg/mL (≈ 21.4 mM), the solubility thermodynamic ([2]; peg 1000/ba/pvp/h2o, Concentration Obtained, Example 19: 40% PEG 1000, 2% BA, 10% PVP, 48% H2O, target 10 mg/ml) was 10 mg/mL (≈ 21.4 mM) and the insolubility in water ([3]; Nakanishi et al.) was “insolubility”. The “solubility in non-aqueous, toxic solvents” value ([3]; non-aqueous, toxic solvents) was “soluble in non-aqueous, toxic solvents” and the solubility in water ([3]; water) was “insoluble in water”.

Reference: patent US5599808A, “Aqueous indolocarbazole solutions” (Cephalon, Inc., priority 1995, dated 1997)
